According to patent publication US9695175B2, “Highly selective c-Met inhibitors as anticancer agents” (Crown Bioscience Inc. (Taiwan), priority 2012, dated 2017):

What was measured:
[1] = target: c-Met kinase (1038-1346AA) (Homo sapiens (Human), UniProt P08581); test: c-Met in vitro kinase assay (Lance Ultra ULight-TK); assay type: biochemical; settings: c-Met kinase 12.5 nM, ATP 2.5 uM, 30° C.; read-out: c-Met Enzyme IC50
Protocol: c-Met In Vitro Kinase Assay [Method] Use Lance@Ultra Ulight™-TK test kits from PerKinElmer to evaluate the inhibition of c-Met kinase by the compounds [Instrument] ENVISION plate reader of PerKinElmer […] Then ATP (final concentration 2.5 uM) and kinase substrate (final concentration 50 nM) are added. […] After 1 hr, the plate is read at 615 nm and 665 nm. The ratio of […] at 665 nm and 615 nm is calculated and used for the data analysis as follows. This assay has a Minimum Significant Ratio (MSA) of 2-3. [Samples] All exampled compounds and Crizotinib as the positive control [Data Analysis] Background—the ratio of 665 nm/615 nm (no enzyme):0.003285 • Max—the ratio of 665 nm/615 nm (no test compound):0.075356 [formula] [Software] Use CBIS data analysis software to calculate IC50 values

[2] = target: c-Met protein in S114 cells (Homo sapiens (Human), UniProt P08581); test: S114 cell-based ELISA, phosphorylation of c-Met protein; settings: 30 min compound incubation, phospho-c-Met ELISA
Chain of c-Met protein in S114 cells (P08581 25-1390): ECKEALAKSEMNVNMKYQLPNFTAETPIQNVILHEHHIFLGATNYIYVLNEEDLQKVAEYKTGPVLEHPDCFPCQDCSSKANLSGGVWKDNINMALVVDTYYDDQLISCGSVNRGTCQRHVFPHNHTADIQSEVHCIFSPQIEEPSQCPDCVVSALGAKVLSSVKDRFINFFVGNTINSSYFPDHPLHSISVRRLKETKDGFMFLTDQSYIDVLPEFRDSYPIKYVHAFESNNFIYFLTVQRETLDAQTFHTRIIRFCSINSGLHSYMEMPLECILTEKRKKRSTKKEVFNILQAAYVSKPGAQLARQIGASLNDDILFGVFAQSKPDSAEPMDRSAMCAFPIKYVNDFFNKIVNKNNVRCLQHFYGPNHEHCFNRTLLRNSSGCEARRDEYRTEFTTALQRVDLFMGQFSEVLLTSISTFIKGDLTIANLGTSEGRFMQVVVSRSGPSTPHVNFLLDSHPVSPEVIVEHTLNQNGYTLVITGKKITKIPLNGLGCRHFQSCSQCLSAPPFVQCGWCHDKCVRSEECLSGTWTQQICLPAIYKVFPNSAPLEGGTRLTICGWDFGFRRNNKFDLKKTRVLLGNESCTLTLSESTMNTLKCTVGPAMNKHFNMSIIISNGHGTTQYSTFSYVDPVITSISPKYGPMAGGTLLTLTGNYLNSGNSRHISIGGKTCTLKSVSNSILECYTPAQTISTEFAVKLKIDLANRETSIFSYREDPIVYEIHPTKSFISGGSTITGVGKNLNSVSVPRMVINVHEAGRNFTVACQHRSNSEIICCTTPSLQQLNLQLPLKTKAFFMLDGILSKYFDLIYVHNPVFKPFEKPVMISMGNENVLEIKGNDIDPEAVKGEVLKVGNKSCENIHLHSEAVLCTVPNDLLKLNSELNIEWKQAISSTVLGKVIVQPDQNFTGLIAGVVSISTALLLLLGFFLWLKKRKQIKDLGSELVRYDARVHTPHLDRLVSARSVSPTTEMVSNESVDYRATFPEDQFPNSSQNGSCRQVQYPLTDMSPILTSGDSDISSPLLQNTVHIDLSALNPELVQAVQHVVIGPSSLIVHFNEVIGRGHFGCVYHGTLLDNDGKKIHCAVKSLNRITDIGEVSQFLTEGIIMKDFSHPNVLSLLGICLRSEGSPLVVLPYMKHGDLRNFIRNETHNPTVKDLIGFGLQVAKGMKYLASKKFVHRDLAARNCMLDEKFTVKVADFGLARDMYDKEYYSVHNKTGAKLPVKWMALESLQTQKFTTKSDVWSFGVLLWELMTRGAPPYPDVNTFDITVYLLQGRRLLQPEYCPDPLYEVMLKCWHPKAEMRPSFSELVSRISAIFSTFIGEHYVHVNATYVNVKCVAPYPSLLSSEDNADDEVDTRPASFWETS
Protocol: Cell-Based ELISA [Method] Use ELISA to measure the phosphorylation of c-Met protein in […] cells [Instrument] ENVISION plate reader of PerKinElmer […] [Procedure] […] cells are cultured in DMEM medium (containing 10% FBS). When cells reach 80% confluency, they are collected by trypsinization and centrifugation at 800 rpm for 5 min. The cells are re-suspended in DMEM and adjusted to a density of 500,000 cells/mL. A 96-well plate is pretreated with a solution of Firbronectin in PBS (5 μg/mL) at 100 μL per well for 2 hr. The cell suspension is split into the 96-well culture plate at 100 uL per well and incubated (37° C., 5% CO2) overnight. The capture antibody is diluted with 1/2 Tris-ammonium bicarbonate buffer (1:1000) and transferred into a 96-well absorption plate (70 μL per well) at 4° C. overnight. The solution is discarded and the plate is washed with blocking buffer, followed by adding blocking buffer (150 μL per well), and kept at room temperature for 1 hr. The medium in the 96-well culture plate is discarded and the plate is washed with DMEM (without FBS). Then 80 μL of DMEM (without FBS) and 20 μL of test compound solution at various concentrations in DMEM (without FBS) are added. The culture plate is kept in a culture incubator for 30 min (37° C., 5% CO2). The cell culture medium is discarded and the culture plate is washed with PBS, followed by adding lysis buffer (50 μL per well) and incubated at 4° C. for 20 min. The solution in the absorption plate is discarded and the plate is washed with binding buffer. To each well of the absorption plate is added binding buffer (50 μL) and lysate (40 μL) from the above culture plate; then the plate is incubated at room temperature for 2 hours. The culture medium is discarded and the plate is washed twice with binding buffer, followed by adding a solution of 1st antibody (diluted with binding buffer 1:1000, 100 μL per well) and incubated at 37° C. for 1 hr. The solution is discarded and the plate is washed twice with binding buffer. Then a solution of 2nd antibody is added (100 μL per well) and incubated at 37° C. for another hour. The medium is discarded and the plate is washed twice with binding buffer and once with PBS. To each well, 100 μL of A.B.T.S solution is added and incubated at 37° C. for 30 min. Then OD405 is analyzed on an ENVISION plate reader. This assay has a Minimum Significant Ratio (MSA) of 2-3. [Samples] All exemplified compounds and Crizotinib as the positive control [Data Analysis] Background (no cell lysate): 0.084 • Max (no test compound): 0.517 [formula] [Software] Use CBIS data analysis software to calculate IC50 values

Chain of c-Met kinase (1038-1346AA) (P08581 1038-1346): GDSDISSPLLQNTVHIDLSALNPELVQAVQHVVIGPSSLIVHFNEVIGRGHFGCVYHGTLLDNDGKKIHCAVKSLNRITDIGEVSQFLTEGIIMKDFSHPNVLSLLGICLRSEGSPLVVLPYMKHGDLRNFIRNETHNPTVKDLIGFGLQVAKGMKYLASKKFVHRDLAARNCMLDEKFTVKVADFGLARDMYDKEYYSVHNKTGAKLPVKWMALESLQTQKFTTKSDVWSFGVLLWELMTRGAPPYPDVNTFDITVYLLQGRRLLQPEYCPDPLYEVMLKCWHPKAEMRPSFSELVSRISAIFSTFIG

IC50 [1] [nM] | IC50 [2] [nM] | Structure (SMILES)
38 | 22 | Cn1cc2cc(C(F)(F)c3nnc4ncc(-c5cnn(C6CC6)c5)cn34)c(F)cc2n1 [Example 47]
38 | 65 | Nc1nc2cc(F)c(Cc3nnc4ccc(-c5cnn(C6CC6)c5)nn34)cc2s1 [Example 49]
1440 | 527 | Fc1cc2n[nH]cc2cc1C(F)(F)c1nnc2ccc(-c3cnn(C4CC4)c3)nn12 [Example 50]
